In brackets after ≈: the same amount, converted by molar mass.
Tests used:
[1] = Concentration of compound that reduces the viability of mock-infected peripheral blood mononuclear cells by 50%; type: functional; conditions: Homo sapiens
MT4 [2] = assay: Concentration required for protection of MT-4 cells from HIV-1 (IIIB) induced cytopathogenicity in MTT assay; type: functional, cell-based; conditions: Homo sapiens
[3] = Selectivity index towards HIV-1 (IIIB) in peripheral blood mononuclear cells; type: functional, Homo sapiens
MT4 [4] = assay: Concentration required for protection of MT-4 cells from HIV-2 (ROD) induced cytopathogenicity in MTT assay; type: functional, cell-based; conditions: Homo sapiens
MT4 [5] = assay: Selectivity index towards HIV-1 (IIIB) in MT-4 cells; type: functional, Homo sapiens
MT4 [6] = assay: Selectivity index towards HIV-2 (ROD) in MT-4 cells; type: functional, Homo sapiens
MT4 [7] = assay: Maximum protection (%) of MT-4 cells from HIV-2 (ROD) induced cytopathogenicity; value ranges from 60-64%; type: functional, Homo sapiens
MT4 [8] = assay: Concentration of compound that reduces the viability of mock-infected MT-4 cells by 50%; type: functional; conditions: Homo sapiens
MT4 [9] = assay: Maximum protection (%) of MT-4 cells from HIV-1 (IIIB) induced cytopathogenicity; value ranges from 35-59%; type: functional, Homo sapiens
CCRF-CEM [10] = assay: Concentration of compound required for protection of CEM cells from HIV-2 (ROD) induced cytopathogenicity; type: functional, cell-based; conditions: Homo sapiens
CCRF-CEM [11] = assay: Concentration of compound that reduces the viability of mock-infected CEM cells by 50%; type: functional; conditions: Homo sapiens
CCRF-CEM [12] = assay: Selectivity index towards HIV-2 (ROD) in CEM cells; type: functional, Homo sapiens
CCRF-CEM [13] = assay: Selectivity index towards HIV-1 (IIIB) in CEM cells; type: functional, Homo sapiens
[14] = Concentration of compound required for reduction of p24 production in HIV-1 (IIIB) infected peripheral blood mononuclear cells; type: functional; conditions: Homo sapiens
CCRF-CEM [15] = assay: Concentration of compound required for protection of CEM cells from HIV-1 (IIIB) induced cytopathogenicity; type: functional, cell-based; conditions: Homo sapiens
MT4 [16] = assay: Maximum protection (%) of MT-4 cells from HIV-2 (ROD) induced cytopathogenicity; type: functional, Homo sapiens
MT4 [17] = assay: Maximum protection (%) of MT-4 cells from HIV-1 (IIIB) induced cytopathogenicity; value ranges from 4-8%; type: functional, Homo sapiens
MT4 [18] = assay: Maximum protection (%) of MT-4 cells from HIV-1 (IIIB) induced cytopathogenicity; value ranges from 16-36%; type: functional, Homo sapiens
MT4 [19] = assay: Maximum protection (%) of MT-4 cells from HIV-1 (IIIB) induced cytopathogenicity; value ranges from 0-1%; type: functional, Homo sapiens
MT4 [20] = assay: Maximum protection (%) of MT-4 cells from HIV-1 (IIIB) induced cytopathogenicity; value ranges from 10-27%; type: functional, Homo sapiens
MT4 [21] = assay: Maximum protection (%) of MT-4 cells from HIV-1 (IIIB) induced cytopathogenicity; value ranges from 32-62%; type: functional, Homo sapiens
MT4 [22] = assay: Maximum protection (%) of MT-4 cells from HIV-2 (ROD) induced cytopathogenicity; value ranges from 55-58%; type: functional, Homo sapiens
MT4 [23] = assay: Maximum protection (%) of MT-4 cells from HIV-2 (ROD) induced cytopathogenicity; value ranges from 22-24%; type: functional, Homo sapiens
MT4 [24] = assay: Maximum protection (%) of MT-4 cells from HIV-1 (IIIB) induced cytopathogenicity; value ranges from 34-37%; type: functional, Homo sapiens
MT4 [25] = assay: Maximum protection (%) of MT-4 cells from HIV-2 (ROD) induced cytopathogenicity; value ranges from 43-78%; type: functional, Homo sapiens
MT4 [26] = assay: Maximum protection (%) of MT-4 cells from HIV-1 (IIIB) induced cytopathogenicity; value ranges from 57-110%; type: functional, Homo sapiens
MT4 [27] = assay: Maximum protection (%) of MT-4 cells from HIV-2 (ROD) induced cytopathogenicity; value ranges from 29-63%; type: functional, Homo sapiens
MT4 [28] = assay: Maximum protection (%) of MT-4 cells from HIV-1 (IIIB) induced cytopathogenicity; value ranges from 29-40%; type: functional, Homo sapiens
MT4 [29] = assay: Maximum protection (%) of MT-4 cells from HIV-1 (IIIB) induced cytopathogenicity; value ranges from 88-115%; type: functional, Homo sapiens

Structure (SMILES)	CC50 [1] [µg/mL]	EC50 (MT4 [2]) [µg/mL]	Selectivity index [3]	EC50 (MT4 [4]) [µg/mL]	Selectivity index (MT4 [5])	Selectivity index (MT4 [6])	CC50 (MT4 [8]) [µg/mL]	EC50 (CCRF-CEM [10]) [µg/mL]	CC50 (CCRF-CEM [11]) [µg/mL]	Selectivity index (CCRF-CEM [12])	Selectivity index (CCRF-CEM [13])	EC50 [14] [µg/mL]	EC50 (CCRF-CEM [15]) [µg/mL]	Protection (MT4 [16]) [%]	also measured
Cn1cc(C(=O)O)c(=O)c2cc(N)c(N3CCN(c4ccccn4)CC3)cc21	1.45 (≈ 3.82 µM)	≥ 0.29	28	0.19 (≈ 0.501 µM)	<=2.4	3.7	0.71 (≈ 1.87 µM)	0.06 (≈ 0.158 µM)	> 100	>1667	>3333	0.05 (≈ 0.132 µM)	0.03 (≈ 0.0791 µM)	–	Protection (MT4 [7]): <64%; Protection (MT4 [9]): <59%
Cn1cc(C(=O)O)c(=O)c2cc(N)c(N3CCN(c4nc5cc(Cl)ccc5s4)CC3)cc21	–	> 0.0021	–	> 0.0021	<1	<1	0.0021 (≈ 0.00447 µM)	–	–	–	–	–	–	3	Protection (MT4 [17]): <8%
Nc1cc2c(=O)c(C(=O)O)cn(C3CC3)c2cc1N1CCN(c2nc3ccccc3s2)CC1	–	> 0.07	–	> 0.07	<1	<1	0.07 (≈ 0.152 µM)	–	–	–	–	–	–	42	Protection (MT4 [18]): <36%
Cn1cc(C(=O)O)c(=O)c2cc(N)c(N3CCN(c4nc5ccccc5[nH]4)CC3)cc21	–	> 125	–	> 125	–	–	> 125	–	–	–	–	–	–	0	Protection (MT4 [19]): <1%
Cn1cc(C(=O)O)c(=O)c2cc(N)c(N3CCN(C4=Nc5ccccc5SC4)CC3)cc21	–	> 2.14	–	> 2.14	<1	<1	2.14 (≈ 4.76 µM)	–	–	–	–	–	–	15	Protection (MT4 [20]): <27%
Nc1cc2c(=O)c(C(=O)O)cn(N3CCN(c4ccccn4)CC3)c2cc1N1CCN(c2ccccn2)CC1	≥ 43.3	≥ 17.4	>=19	19.2 (≈ 36.5 µM)	<=3.4	3	58.5 (≈ 111 µM)	12 (≈ 22.8 µM)	> 100	>8	>11	2.24 (≈ 4.25 µM)	9.4 (≈ 17.9 µM)	–	Protection (MT4 [21]): <62%; Protection (MT4 [22]): <58%
Nc1cc2c(=O)c(C(=O)O)cn(-c3ccc(F)cc3)c2cc1N1CCN(c2ccccn2)CC1	–	> 22	–	> 22	<1	<1	22 (≈ 47.9 µM)	–	–	–	–	–	–	–	Protection (MT4 [23]): <24%; Protection (MT4 [24]): <37%
Cn1cc(C(=O)O)c(=O)c2cc(N)c(N3CCN(c4cccc(C(F)(F)F)c4)CC3)cc21	1.55 (≈ 3.47 µM)	0.31 (≈ 0.694 µM)	28	≥ 0.31	7	<=7	2.18 (≈ 4.88 µM)	0.2 (≈ 0.448 µM)	8 (≈ 17.9 µM)	40	89	0.05 (≈ 0.112 µM)	0.09 (≈ 0.202 µM)	–	Protection (MT4 [25]): <78%; Protection (MT4 [26]): <110%
Cc1nnc(N2CCN(c3cc4c(cc3N)c(=O)c(C(=O)O)cn4C)CC2)s1	–	> 125	–	≥ 10.3	<1	<=12.1	> 125	–	–	–	–	–	–	–	Protection (MT4 [27]): <63%; Protection (MT4 [28]): <40%
Nc1cc2c(=O)c(C(=O)O)cn(C3CC3)c2cc1N1CCN(c2cccc(C(F)(F)F)c2)CC1	4.63 (≈ 9.8 µM)	0.27 (≈ 0.571 µM)	4	0.38 (≈ 0.804 µM)	14.2	10.1	3.83 (≈ 8.11 µM)	0.8 (≈ 1.69 µM)	9 (≈ 19 µM)	11	11	1.09 (≈ 2.31 µM)	0.8 (≈ 1.69 µM)	71	Protection (MT4 [29]): <115%
